From US20260008048A1, “POLYSILOXANE-BASED DEVICES WITH REDUCED DRUG ABSORPTION CHARACTERISTICS” (THE JOHNS HOPKINS UNIVERSITY, priority 2022, published 2026)
Converted amounts (≈) assume the structure as drawn. “Also recorded” adds a separate entry of the source.

Legend:
[1] = 1-week drug absorption by PDMS / PDMS-PEG block copolymer plugs (UV-Vis); assay type: physicochemical; settings: 100 μM drug, 37° C.; for 1-week drug absorption with block copolymer versus PDMS: 1% and 2% BCP; for reduction of drug absorption by PDMS-PEG block copolymer additives: compared to PDMS
Description: Plug size was chosen to be similar to many microfluidic devices. After 1 week, the drug concentration was measured using UV-Vis spectroscopy, the area under the curve (AUC) was calculated, and each value was compared to drug standards to determine the percent drug loss (FIG. 2A).
PDMS-PEG Fabrication: PDMS was prepared as previously described in Scott, L. E., Mair, D. B., Narang, J. D., Feleke, K. & Lemmon, C. A. Fibronectin fibrillogenesis facilitates mechano-dependent cell spreading, force generation, and nuclear size in human embryonic fibroblasts. […] PDMS base was mixed with PDMS crosslinker at a […] for 5 minutes and was then degassed in a desiccator for 30 minutes. […] 8 mm plugs were taken using a biopsy punch and used in downstream experiments. This height/diameter was chosen to provide a surface to volume ratio of ˜0.2/mm, similar to that found in microfluidic devices.
Drug absorption experimental setup: Samples were added to glass vials. A 1.5 mL volume of 100 μM pharmaceutical solution was added, and the samples were fully submerged in the solution. […] Experimental samples were compared to controls, in which drug was incubated for one week without a PDMS sample. The mean of the controls was taken as the total drug concentration without absorption, and the percent drug loss was calculated as
UV-Vis: Following experimental absorption, 2 μL samples were measured (Nanodrop 2000, ThermoFisher Scientific). Measurements were taken in triplicate for each sample to decrease noise. […] The area under the curve was used to calculate the precent drug loss, compared to the AUC of the drug standards. Sample size equals three, with three independent measurements per sample.

[2] = Drug absorption after drug pretreatment of PDMS / PDMS-PEG samples; assay type: physicochemical; settings: 24 hour pretreatment
Description: We pretreated with 200 μM and 1 mM concentrations and 1 week of absorption was measured (FIG. 4A). […] For these experiments, we utilized a 24 hour pretreatment step.
Drug Pretreatment: PDMS, 1% block copolymer, and 2% block copolymer samples were prepared as mentioned above. […] Pretreated samples were then transferred to a fresh 100 μM drug solution for one week of absorption, and absorption was assessed as described.

[3] = cited from earlier work
[4] = cited from earlier work; remark: listed apart in the source
[5] = Drug absorption after drug pretreatment of PDMS / PDMS-PEG samples; assay type: physicochemical; settings: 1 week pretreatment, 100 μM
[6] = system: engineered heart tissue (EHT); assay: Engineered heart tissue (Mantarray) twitch force dose response
Description: We utilized the commercially available Mantarray (Curi Bio) engineered heart tissue (EHT) platform to perform these screens. In this platform, the EHT self assembles between two posts, one soft and bendable, and the other stiff and immovable (FIG. 6B). The soft post has an embedded magnet, and deflection of the post due to EHT contraction results in changes in magnetic flux. The tissues can be placed over magnetic sensor arrays in the Mantarray system to measure this change in flux and calculate the twitch forces and kinetics.
After drug was allowed to absorb for 1 week, dose response curves were measured for each condition. […]
Engineered Heart Tissue Fabrication: The Mantarray (Curi Bio) is a system designed for reproducible fabrication and functional measurements of EHTs in a 24-well plate format. […] Cardiomyocytes and HS27A stromal cells (ATCC) were lifted using 0.05% trypsin+EDTA, counted, and resuspended at 8.3 million cells/mL and 2.5 million cells/mL, respectively. […]
EHT Dosing and Contractile Measurements: EHTs were fabricated as described above and paced to measure average force output. […] EHTs were paced at 5.0 V 1 Hz with a pulse duration of 10 milliseconds and average force output readings were recorded using a Mantarray for 60 seconds to give an initial mean force average. […] Percent reduction in twitch force following exposure to drug was then calculated using the equation

[7] = 200 μM and 1 mM, PDMS, 1% and 2% BCP overall

Row | 1-week drug absorption with block copolymer versus PDMS [1] | effect of pretreating with higher dosages on drug absorption [2, 7] | effect of pretreating with higher dosages on drug absorption ([2]; 1 mM, 2% BCP) | reduction of drug absorption by PDMS-PEG block copolymer additives [1] [%] | effect of pretreating with higher dosages on drug absorption ([2]; 1 mM, PDMS) | Compound | effect of pretreating with higher dosages on drug absorption ([2]; increasing dosage, 1% BCP) | effect of pretreating with higher dosages on drug absorption ([2]; increasing dosage, PDMS) | logP [3] | Solubility in H2O [4] [mg/mL] | effect of pretreating with experimental dosages for 1 week on drug absorption ([5]; PDMS only) | effect of pretreating with higher dosages on drug absorption ([2]; 200 μM, 2% BCP) | effect of pretreating with experimental dosages for 1 week on drug absorption ([5]; PDMS and PDMS-PEG BCP samples) | IC50 of drug incubated with APC compared to control ([6]; drug incubated 1 week at 37° C. with APC (2% block copolymer-1 mM)) | IC50 of drug incubated with PDMS compared to control and APC ([6]; drug incubated 1 week at 37° C. with PDMS)
1 | no significant improvement | significant reductions | significantly decreases absorption |  |  | CC(C)COCC(CN(Cc1ccccc1)c1ccccc1)N1CCCC1 (stereo not shown) [Bepridil] | a decrease, followed by an increase in drug absorption; also recorded: increased | a decrease, followed by an increase in drug absorption; also recorded: increased | 5.2 | 0.05655 (≈ 154 µM) | significantly decreases bepridil absorption |  |  |  | 
2 | significantly reduced | significant reductions |  | 97.2 | increased | COCCc1ccc(OCC(O)CNC(C)C)cc1 (stereo not shown) [Metoprolol Succinate] | no significant change in absorption | biphasic drug absorption pattern |  | 1000 |  | significant increase in absorption; also recorded: increased | no significant effect |  | 
3 |  |  |  |  |  | COc1ccc(CCN(C)CCCC(C#N)(c2ccc(OC)c(OC)c2)C(C)C)cc1OC (stereo not shown) [Verapamil] |  |  |  |  |  |  |  | not significantly different from control | significantly reduce the IC50 value

Row | Compound | 1-week drug absorption with block copolymer versus PDMS [1] | effect of pretreating with higher dosages on drug absorption [2, 7] | effect of pretreating with higher dosages on drug absorption ([2]; 1 mM, 2% BCP) | reduction of drug absorption by PDMS-PEG block copolymer additives [1] [%] | effect of pretreating with higher dosages on drug absorption ([2]; 1 mM, PDMS) | effect of pretreating with higher dosages on drug absorption ([2]; increasing dosage, 1% BCP) | effect of pretreating with higher dosages on drug absorption ([2]; increasing dosage, PDMS) | logP [3] | Solubility in H2O [4] [mg/mL] | effect of pretreating with experimental dosages for 1 week on drug absorption ([5]; PDMS only) | effect of pretreating with higher dosages on drug absorption ([2]; 200 μM, 2% BCP) | effect of pretreating with experimental dosages for 1 week on drug absorption ([5]; PDMS and PDMS-PEG BCP samples) | IC50 of drug incubated with APC compared to control ([6]; drug incubated 1 week at 37° C. with APC (2% block copolymer-1 mM)) | IC50 of drug incubated with PDMS compared to control and APC ([6]; drug incubated 1 week at 37° C. with PDMS)
4 | CC(C)(C)c1ccc(C(O)CCCN2CCC(C(O)(c3ccccc3)c3ccccc3)CC2)cc1 (stereo not shown) [Terfenadine] | significantly reduced | further decrease terfenadine absorption; also recorded: significant reductions |  | 61.8 |  |  |  | 6.6 | 0.0963 (≈ 204 µM) |  |  | significantly decreases terfenadine absorption |  | 
